Measured values from patent US20210315893A1 (Galapagos NV, priority 2017, published 2021).

Legend:
[1] = target: T1, human GPCR sphingosine 1-phosphate receptor 1 (Homo sapiens, UniProt P21453); experiment: S1PR1 selectivity Ca2+ flux assay (antagonist readout); type: cell-based; conditions: antagonist readout, CHO cells overexpressing human S1PR1 and Gq, S1P at EC80 (6 nM); read-out: S1P1 EC50 (nM), S1P1 antagonist EC50
T1 construct: host or cells: CHO
How it was run: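 CHO cells stably overexpressing human S1PR1, starved 1 h in 0.1% FAF BSA medium, then Fluo 8 dye-loaded. Compound added, then after 15 min at 37 °C, S1P-evoked Ca2+ flux recorded. Maximal signal/background ratio normalized to controls as % inhibition; IC50 from four-parameter logistic fit.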

HFL-1 cells [2] = experiment: IL8 assay in the presence of Human Serum Albumin; conditions: HFL1, read-out: HSA IL8 EC50
[3] = target: T2, human GPCR sphingosine 1-phosphate receptor 2 (Homo sapiens, UniProt O95136); experiment: S1PR2 antagonist Ca2+ flux assay; type: cell-based; conditions: antagonist mode, CHO-S1PR2 cells, S1P at EC80, Ca2+ fluorescence; read-out: S1P2 EC50 (nM), S1P2 antagonist EC50
T2 construct: host or cells: CHO
T2 sequence (O95136 whole entry): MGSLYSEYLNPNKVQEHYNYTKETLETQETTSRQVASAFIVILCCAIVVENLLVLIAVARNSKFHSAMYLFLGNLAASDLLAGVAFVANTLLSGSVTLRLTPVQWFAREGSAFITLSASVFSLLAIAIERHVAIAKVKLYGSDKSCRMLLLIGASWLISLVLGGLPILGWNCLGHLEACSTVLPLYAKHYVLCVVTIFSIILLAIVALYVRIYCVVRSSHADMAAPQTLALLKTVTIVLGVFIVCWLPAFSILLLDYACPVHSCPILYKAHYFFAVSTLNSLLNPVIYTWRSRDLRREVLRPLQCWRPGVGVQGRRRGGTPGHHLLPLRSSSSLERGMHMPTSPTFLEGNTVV
How it was run: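 CHO cells stably expressing human S1PR2, serum-starved 1 h, Fluo8-loaded; compound-evoked Ca2+ fluorescence read 3 min (agonist mode), then after 15 min S1P at EC80 added and read 3 min (antagonist mode). Max/baseline fluorescence ratios normalised to vehicle and S1P EC100 or EC50 controls; EC50 derived.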

[4] = target: T3, human GPCR sphingosine 1-phosphate receptor 5 (Homo sapiens, UniProt Q9H228); experiment: S1PR5 selectivity Ca2+ flux assay (antagonist readout); type: cell-based; conditions: CHO cells overexpressing human S1PR5 and Gq, agonist at EC80 (20 nM), read-out: S1P5 EC50 (nM), S1P5 antagonist EC50
T3 construct: host or cells: CHO
T3 sequence (Q9H228 whole entry): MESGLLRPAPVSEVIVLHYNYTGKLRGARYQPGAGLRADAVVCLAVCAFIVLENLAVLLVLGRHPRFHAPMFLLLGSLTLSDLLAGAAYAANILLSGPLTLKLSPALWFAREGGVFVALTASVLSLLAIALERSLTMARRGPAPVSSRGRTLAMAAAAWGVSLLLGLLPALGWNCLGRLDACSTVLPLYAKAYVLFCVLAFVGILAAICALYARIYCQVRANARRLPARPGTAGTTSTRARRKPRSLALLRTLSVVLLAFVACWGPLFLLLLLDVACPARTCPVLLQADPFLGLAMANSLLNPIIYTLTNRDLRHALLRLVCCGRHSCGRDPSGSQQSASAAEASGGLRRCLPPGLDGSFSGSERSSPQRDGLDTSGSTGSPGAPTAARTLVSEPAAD
How it was run: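 CHO cells stably coexpressing human S1PR5 and Gq were serum-starved, Fluo 8-loaded and preincubated 15 min at 37° C with compound. They were then stimulated at EC80 with an S1PR5-specific agonist, and calcium fluorescence was recorded for 3 min. Peak/baseline ratios were normalized to controls and fitted to a four-parameter IC50 equation.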

HFL-1 cells [5] = experiment: IL-8 production assay (S1P induced IL-8); type: cell-based; conditions: Homo sapiens, HFL1; S1P (1 μM) induced IL-8 in HFL-1 cells, starvation medium without HSA; read-out: IL8 EC50
How it was run: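 HFL-1 human fetal lung fibroblasts were starved in F12K/1% FBS, then given compound for 1 h (10-point, 1/3 dilution, 30 μM top, 0.3% DMSO final). S1P was added at 1 μM final for 16–24 h at 37 °C, and secreted IL-8 in supernatant quantified by ELISA.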

S1PR2 = target: T4, S1PR2 (Homo sapiens, UniProt O95136); experiment: S1PR2 binding assay (competition with radioactively labeled S1P, SpA); conditions: membranes from stable cell line over expressing S1PR2, SpA beads; read-out: S1P2 EC50 (nM), S1PR2 binding EC50
T4 construct: expressed in transfected cells
T4 sequence (O95136 whole entry): as the sequence (O95136 whole entry) above
How it was run: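 Competition with [3H]S1P for membranes from a stable S1PR2-overexpressing cell line, 20 μg/well, captured on PVT-WGA SPA beads, in 20 mM Tris pH 7.5, 10 mM MgCl2, 100 mM NaCl, 0.4% fatty-acid-free BSA, 1 mM Na3VO4. 2 h at room temperature, then centrifugation and scintillation counting.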

T1 sequence (P21453 whole entry): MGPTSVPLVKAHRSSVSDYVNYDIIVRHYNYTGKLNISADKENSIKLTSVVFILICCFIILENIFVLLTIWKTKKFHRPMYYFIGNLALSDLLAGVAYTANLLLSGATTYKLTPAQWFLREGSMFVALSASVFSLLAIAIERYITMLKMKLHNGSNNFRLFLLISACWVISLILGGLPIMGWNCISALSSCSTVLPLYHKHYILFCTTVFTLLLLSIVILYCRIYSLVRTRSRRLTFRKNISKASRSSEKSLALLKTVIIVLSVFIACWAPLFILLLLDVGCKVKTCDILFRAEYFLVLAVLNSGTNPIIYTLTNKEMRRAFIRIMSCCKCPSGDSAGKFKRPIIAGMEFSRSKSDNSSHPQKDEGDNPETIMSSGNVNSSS

## O=C(Cn1nc(Cc2nc3cc(Cl)c(OC(F)(F)F)cc3[nH]2)c2c(c1=O)CCCC2)N[C@H]1CCC[C@@H]1O [Compound 146, 2-[4-[[5-chloro-6-(trifluoromethoxy)-1H-benzimidazol-2-yl]methyl]-1-oxo-5,6,7,8-tetrahydrophthalazin-2-yl]-N-[(1S,2S)-2-hydroxycyclopentyl]acetamide]
[1]
  EC50: ≥ 19900 nM
HFL-1 cells [2]
  EC50: 0.28 µM
[3]
  EC50: 15.3 nM
[4]
  EC50: 6640 nM
HFL-1 cells [5]
  EC50: 0.0295 µM
S1PR2
  EC50: 23 nM

## O=C(Cn1nc(Cc2nc3cc(Cl)c(OCC4CC4)c(F)c3[nH]2)c2ccccc2c1=O)N1CCOCC1 [Compound 149, 4-[[5-chloro-6-(cyclopropylmethoxy)-7-fluoro-1H-benzimidazol-2-yl]methyl]-2-(2-morpholino-2-oxo-ethyl)phthalazin-1-one]
[1]
  EC50: ≥ 19800 nM
HFL-1 cells [2]
  EC50: 0.381 µM
[3]
  EC50: 30.4 nM
[4]
  EC50: 19800 nM
HFL-1 cells [5]
  EC50: 0.211 µM
S1PR2
  EC50: 142 nM

## O=C(Cn1nc(Cc2nc3cc(OCC(F)F)c(Cl)cc3[nH]2)c2c(F)ccc(F)c2c1=O)N1CCOCC1 [Compound 152, 4-[[6-chloro-5-(2,2-difluoroethoxy)-1H-benzimidazol-2-yl]methyl]-5,8-difluoro-2-(2-morpholino-2-oxo-ethyl)phthalazin-1-one]
[1]
  EC50: ≥ 19800 nM
HFL-1 cells [2]
  EC50: 0.201 µM
[3]
  EC50: 19.1 nM
[4]
  EC50: 19800 nM
HFL-1 cells [5]
  EC50: 0.00665 µM
S1PR2
  EC50: 64 nM

## N#Cc1ccc2c(=O)n(CC(=O)N3CCOCC3)nc(Cc3nc4cc(OCC(F)F)c(Cl)cc4[nH]3)c2c1 [Compound 153]
[1]
  EC50: ≥ 19800 nM
HFL-1 cells [2]
  EC50: 0.254 µM
[3]
  EC50: 28.5 nM
[4]
  EC50: 19800 nM
HFL-1 cells [5]
  EC50: 0.0274 µM
S1PR2
  EC50: 246 nM

## O=C(Cn1nc(Cc2nc3cc(OCC(F)F)c(F)cc3[nH]2)c2ccccc2c1=O)N1CCOCC1 [Compound 156, 4-[[5-(2,2-difluoroethoxy)-6-fluoro-1H-benzimidazol-2-yl]methyl]-2-(2-morpholino-2-oxo-ethyl)phthalazin-1-one]
[1]
  EC50: ≥ 19800 nM
HFL-1 cells [2]
  EC50: 0.868 µM
[3]
  EC50: 59.8 nM
[4]
  EC50: 19800 nM
HFL-1 cells [5]
  EC50: 0.593 µM
S1PR2
  EC50: 647 nM

## O=C(Cc1nn(Cc2nc3cc(OCC(F)F)c(Cl)cc3[nH]2)c2ccccc2c1=O)N1CCOCC1 [Compound 159, 1-[6-Chloro-5-(2,2-difluoro-ethoxy)-1H-benzoimidazol-2-ylmethyl]-3-(2-morpholin-4-yl-2-oxo-ethyl)-1H-cinnolin-4-one]
[1]
  EC50: ≥ 19800 nM
HFL-1 cells [2]
  EC50: 0.014 µM
[3]
  EC50: 9.25 nM
[4]
  EC50: 19800 nM
HFL-1 cells [5]
  EC50: 0.00102 µM
S1PR2
  EC50: 30.7 nM

## N#CC1(COc2cc3[nH]c(Cc4nn(CC(=O)N5CCOCC5)c(=O)c5ccccc45)nc3cc2Cl)CC1 [Compound 161, 1-[[6-chloro-2-[[3-(2-morpholino-2-oxo-ethyl)-4-oxo-phthalazin-1-yl]methyl]-3H-benzimidazol-5-yl)oxymethyl]cyclopropanecarbonitrile]
[1]
  EC50: ≥ 19800 nM
HFL-1 cells [2]
  EC50: 0.108 µM
[3]
  EC50: 15.6 nM
[4]
  EC50: 19800 nM
HFL-1 cells [5]
  EC50: 0.0474 µM
S1PR2
  EC50: 154 nM

## N#Cc1cc2nc(Cc3nn(CC(=O)N4CCOCC4)c(=O)c4c3CCCC4)[nH]c2cc1OCC(F)F [Compound 164, 6-(2,2-difluoroethoxy)-2-[[3-(2-morpholino-2-oxo-ethyl)-4-oxo-5,6,7,8-tetrahydrophthalazin-1-yl]methyl]-1H-benzimidazole-5-carbonitrile]
[1]
  EC50: ≥ 19800 nM
HFL-1 cells [2]
  EC50: 0.0649 µM
[3]
  EC50: 31.9 nM
[4]
  EC50: 19800 nM
HFL-1 cells [5]
  EC50: 0.0427 µM
S1PR2
  EC50: 129 nM

## CCOc1cc2[nH]c(Cc3nn(CC(=O)N4CCOCC4)c(=O)c4c3CCCC4)nc2cc1C#N [Compound 167, 6-ethoxy-2-[[3-(2-morpholino-2-oxo-ethyl)-4-oxo-5,6,7,8-tetrahydrophthalazin-1-yl]methyl]-1H-benzimidazole-5-carbonitrile]
[1]
  EC50: ≥ 19800 nM
HFL-1 cells [2]
  EC50: 0.0184 µM
[3]
  EC50: 13.2 nM
[4]
  EC50: 19800 nM
HFL-1 cells [5]
  EC50: 0.00661 µM
S1PR2
  EC50: 191 nM
